Molecules are shown by their SMILES.

Broadly, the melting point is the temperature, or range, at which the solid turns liquid. For the compound `Cc1c(NC(=O)c2ccc(-c3ccc(F)cc3)cc2)ccc2cc(CN3CCC(CC(N)=O)CC3)cnc12` [Example 200, N-(3-{[4-(2-amino-2-oxoethyl)-1-piperidinyl]methyl}-8-methyl-7-quinolinyl)-4′-fluoro[1,1′-biphenyl]-4-carboxamide], the melting point was 258 to 260 °C.

Compound `Cc1c(NC(=O)c2ccc(OCc3ccc(F)cc3)cc2)ccc2cc(CN3CCCC3)cnc12` (hydrate or solvate) [Example 123, 4-[(4-fluorobenzyl)oxy]-N-[8-methyl-3-(1-pyrrolidinylmethyl)-7-quinolinyl]benzamide] yielded a melting point of 177 to 178 °C.

Turning to `Cc1c(NC(=O)c2ccc(-c3ccc(Cl)s3)cc2F)ccc2cc(CN3CCCC3)cnc12` (hydrate or solvate) [Example 143, 4-(5-chloro-2-thienyl)-2-fluoro-N-[8-methyl-3-(1-pyrrolidinylmethyl)-7-quinolinyl]benzamide], the melting point lay within 160 to 162 °C.

`CCNC(=O)COC1CCN(Cc2cnc3cc(NC(=O)c4ccc(-c5ccc(F)cc5)cc4)ccc3c2)CC1` [Example 48, N-[3-({4-[2-(ethylamino)-2-oxoethoxy]-1-piperidinyl}methyl)-7-quinolinyl]-4′-fluoro[1,1′-biphenyl]-4-carboxamide] displayed a melting point of 228 to 230 °C.

`CN(C)Cc1cnc2cc(NC(=O)c3ccc(-c4ccc(Cl)cc4)cc3)ccc2c1` [Example 1, 4′-chloro-N-[3-[(dimethylamino)methyl]-7-quinolinyl][1,1′-biphenyl]-4-carboxamide] came in with a melting point of 236 to 238 °C.

`CNC(=O)C1CCN(Cc2cnc3cc(NC(=O)c4ccc(-c5ccc(F)cc5)cc4)c(C)cc3c2)CC1` [Example 275, 1-[(7-{[(4′-fluoro-1,1′-biphenyl-4-yl)carbonyl]amino}-6-methyl-3-quinolinyl)methyl]-N-methylpiperidine-4-carboxamide] registered a melting point of 257 °C.

Take `Cc1c(NC(=O)c2ccc(-c3ccc(F)cc3)cc2)ccc2cc(CN3CCC(CC(=O)N(C)C)CC3)cnc12` [Example 202, N-[3-({4-[2-(dimethylamino)-2-oxoethyl]-1-piperidinyl}methyl)-8-methyl-7-quinolinyl]-4′-fluoro[1,1′-biphenyl]-4-carboxamide]: the melting point was 200 to 201 °C.

The compound `Cc1c(NC(=O)c2ccc(-c3ccc(C(F)(F)F)cc3)cc2F)ccc2cc(CN3CCCC3)cnc12` (hydrate or solvate) [Example 138, 3-fluoro-N-[8-methyl-3-(1-pyrrolidinylmethyl)-7-quinolinyl]-4′-(trifluoromethyl)[1,1′-biphenyl]-4-carboxamide] had a melting point of 202 to 203 °C.

For `O=C(Nc1ccc2cc(CN3CCCC3)cnc2c1F)c1ccc(-c2ccc(Cl)cc2)cc1F` [Example 279, 4′-chloro-3-fluoro-N-[8-fluoro-3-(1-pyrrolidinylmethyl)-7-quinolinyl][1,1′-biphenyl]-4-carboxamide], the melting point was 208 °C.

As for `COc1ccc(-c2ccc(C(=O)Nc3cc4ncc(CN5CCCC5)cc4cc3C)c(F)c2)cc1` [Example 227, 3-fluoro-4′-methoxy-N-[6-methyl-3-(1-pyrrolidinylmethyl)-7-quinolinyl][1,1′-biphenyl]-4-carboxamide], the melting point lay in the range of 187 to 190 °C.

`Cc1cc2cc(CN3CCCC3)cnc2cc1NC(=O)c1ccc(-c2ccc(F)cc2)cc1F` [Example 228, 3,4′-difluoro-N-[6-methyl-3-(1-pyrrolidinylmethyl)-7-quinolinyl][1,1′-biphenyl]-4-carboxamide]: the melting point was 174 to 177 °C.

Consider `Cc1cc2cc(CN3CCCCCC3)cnc2cc1NC(=O)c1ccc(-c2ccc(F)cc2)cc1` [Example 251, N-[3-(1-azepanylmethyl)-6-methyl-7-quinolinyl]-4′-fluoro[1,1′-biphenyl]-4-carboxamide], for which the melting point lay within 170 to 174 °C.

In turn, `COc1ccc(-c2ccc(C(=O)Nc3ccc4cc(CN5CCCC5)cnc4c3C)c(F)c2)cc1` [Example 147, 3-fluoro-4′-methoxy-N-[8-methyl-3-(1-pyrrolidinylmethyl)-7-quinolinyl][1,1′-biphenyl]-4-carboxamide] yielded a melting point of 164 to 166 °C.

For `Cc1c(NC(=O)c2ccc(-c3ccc(F)cc3)cc2)ccc2cc(CN3CCOCC3)cnc12` [Example 198, 4′-fluoro-N-[8-methyl-3-(4-morpholinylmethyl)-7-quinolinyl][1,1′-biphenyl]-4-carboxamide], the melting point is 176 to 178 °C.

For the compound `Cc1c(NC(=O)c2ccc(-c3ccc(Cl)cc3)cc2)ccc2cc(CN3CCCC3)cnc12` [Example 21, 4′-chloro-N-[8-methyl-3-(1-pyrrolidinylmethyl)-7-quinolinyl][1,1′-biphenyl]-4-carboxamide], the melting point was 227 to 229 °C.

Turning to `Cc1c(NC(=O)c2ccc(-c3ccccc3F)cc2)ccc2cc(CN3CCCC3)cnc12` [Example 99, 2′-fluoro-N-[8-methyl-3-(1-pyrrolidinylmethyl)-7-quinolinyl][1,1′-biphenyl]-4-carboxamide], the melting point was 133 to 135 °C.

Regarding `O=C(Nc1ccc2cc(CN3CCCCCC3)cnc2c1)c1ccc(-c2ccc(Cl)cc2)nc1` [Example 32, N-[3-(1-azepanylmethyl)-7-quinolinyl]-6-(4-chlorophenyl)nicotinamide], the melting point was 233 °C (dec.).

For `Cc1c(NC(=O)c2ccc(-c3ccc(F)cc3F)cc2)ccc2cc(CN3CCCC3)cnc12` [Example 100, 2′,4′-difluoro-N-[8-methyl-3-(1-pyrrolidinylmethyl)-7-quinolinyl][1,1′-biphenyl]-4-carboxamide], the melting point was in the range of 177 to 179 °C.

With `O=C(Nc1ccc2cc(CN3CCCCCC3)cnc2c1)c1ccc(-c2ccc(F)cc2)cc1` [Example 29, N-[3-(1-azepanylmethyl)-7-quinolinyl]-4′-fluoro[1,1′-biphenyl]-4-carboxamide], the melting point is 202 °C.

As for `Cc1c(NC(=O)c2ccc(-c3ccc(F)cc3)c(F)c2)ccc2cc(CN3CCCC3)cnc12` [Example 153, 2,4′-difluoro-N-[8-methyl-3-(1-pyrrolidinylmethyl)-7-quinolinyl][1,1′-biphenyl]-4-carboxamide], the melting point fell in the range of 176 to 178 °C.

Compound `Cc1cc2cc(CN3CCCCCC3)cnc2cc1NC(=O)c1ccc(-c2cc3ccccc3o2)cc1` [Example 240, N-[3-(1-azepanylmethyl)-6-methyl-7-quinolinyl]-4-(1-benzofuran-2-yl)benzamide] yielded a melting point of 207 °C.

Turning to `Cc1ccc(-c2ccc(C(=O)Nc3ccc4cc(CN5CCCC5)cnc4c3F)c(F)c2)cc1` [Example 278, 3-fluoro-N-[8-fluoro-3-(1-pyrrolidinylmethyl)-7-quinolinyl]-4′-methyl[1,1′-biphenyl]-4-carboxamide], the melting point came to 173 °C.

As to `Cc1c(NC(=O)c2ccc(-c3ccccc3F)c(F)c2)ccc2cc(CN3CCCC3)cnc12` [Example 156, 2,2′-difluoro-N-[8-methyl-3-(1-pyrrolidinylmethyl)-7-quinolinyl][1,1′-biphenyl]-4-carboxamide], the melting point lay within 139 to 140 °C.

`Cc1cc2cc(CN3CCCC3)cnc2cc1NC(=O)c1ccc(-c2ccccc2F)cc1` [Example 213, 2′-fluoro-N-[6-methyl-3-(1-pyrrolidinylmethyl)-7-quinolinyl][1,1′-biphenyl]-4-carboxamide] showed a melting point of 148 to 149 °C.

Take `Cc1cc2cc(CN(C)C)cnc2cc1NC(=O)c1ccc(-c2ccc(F)cc2)cc1` [Example 248, N-{3-[(dimethylamino)methyl]-6-methyl-7-quinolinyl}-4′-fluoro[1,1′-biphenyl]-4-carboxamide]: the melting point is 183 to 186 °C.

With `Cc1c(NC(=O)c2ccc(-c3ccc(OC(F)(F)F)cc3)cc2)ccc2cc(CN3CCCC3)cnc12` [Example 103, N-[8-methyl-3-(1-pyrrolidinylmethyl)-7-quinolinyl]-4′-(trifluoromethoxy)[1,1′-biphenyl]-4-carboxamide], the melting point fell in the range of 200 to 202 °C.

`Cc1cc2cc(CN3CCCC3)cnc2cc1NC(=O)c1ccc(-c2ccc(F)c(F)c2)cc1` [Example 216, 3′,4′-difluoro-N-[6-methyl-3-(1-pyrrolidinylmethyl)-7-quinolinyl][1,1′-biphenyl]-4-carboxamide] gave a melting point of 220 to 223 °C.

Compound `Cc1c(NC(=O)c2ccc(-c3ccc(Cl)s3)cc2)ccc2cc(CN3CCCCCC3)cnc12` (hydrate or solvate) [Example 181, N-[3-(1-azepanylmethyl)-8-methyl-7-quinolinyl]-4-(5-chloro-2-thienyl)benzamide] had a melting point of 186 to 187 °C.

The compound `Cc1c(NC(=O)c2ccc(-c3ccc4c(c3)OCCO4)cc2)ccc2cc(CN3CCCC3)cnc12` (hydrate or solvate) [Example 115, 4-(2,3-dihydro-1,4-benzodioxin-6-yl)-N-[8-methyl-3-(1-pyrrolidinylmethyl)-7-quinolinyl]benzamide] came in with a melting point of 187 to 188 °C.

`Cc1cc2cc(CN3CCCC3)cnc2cc1NC(=O)c1ccc(-c2ccccc2)cc1F` [Example 226, 3-fluoro-N-[6-methyl-3-(1-pyrrolidinylmethyl)-7-quinolinyl][1,1′-biphenyl]-4-carboxamide] displayed a melting point of 180 to 183 °C.

With `Cc1cc2cc(CN3CCC(CCCC(=O)N(C)C)CC3)cnc2cc1NC(=O)c1ccc(-c2ccc(F)cc2)cc1` [Example 262, N-[3-({4-[4-(dimethylamino)-4-oxobutyl]-1-piperidinyl}methyl)-6-methyl-7-quinolinyl]-4′-fluoro[1,1′-biphenyl]-4-carboxamide], the melting point was 194 °C.

`Cc1c(NC(=O)c2ccc(OCc3ccccc3)cc2)ccc2cc(CN3CCCCC3)cnc12` [Example 161, 4-(benzyloxy)-N-[8-methyl-3-(1-piperidinylmethyl)-7-quinolinyl]benzamide] registered a melting point of 186 to 187 °C.

Compound `CCN(CC)C(=O)CCCC1CCN(Cc2cnc3cc(NC(=O)c4ccc(-c5ccc(F)cc5)cc4)c(C)cc3c2)CC1` [Example 260, N-[3-({4-[4-(diethylamino)-4-oxobutyl]-1-piperidinyl}methyl)-6-methyl-7-quinolinyl]-4′-fluoro[1,1′-biphenyl]-4-carboxamide] had a melting point of 181 °C.

Values taken from patent publication US7183415B2, “Quinoline compound” (Takeda Pharmaceutical Company Limited, priority 2001, dated 2007).
